These results are taken from PubChem BioAssay (NCI).

SMILES strings stand for the structures. Values joined by “and” are separate entries in the source; they are usually repeats but may differ in a detail not shown here. Identical values can stand only once.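 Tested at 5 concentrations; 48 h exposure; 96-well plates; endpoints linearly interpolated, else capped at highest concentration. GI50: concentration for 50% inhibition of growth. Definition used: TGI = concentration required for complete inhibition of growth.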

Some test systems named below: EKVX NSCLC; SF-539 CNS; COLO 205 colon; HCT-116 colon; MDA-MB-435; NCI/ADR-RES ovarian; BT-549 breast; NCI-H23 lung.
Common to all, as to experiment: growth of human tumour cells (NCI), 48 h

`O=S(=O)(c1ccc2c(c1)C(=NO)c1cc(S(=O)(=O)N3CCCCC3)ccc1-2)N1CCCCC1`: the GI50 in the assay with EKVX NSCLC was 575 nM and 174 nM; in the assay on SF-539 CNS, 227 nM and 170 nM; in the assay on COLO 205 colon it was > 1000 nM and 194 nM; in the assay on HCT-116 colon it was 200 nM and 153 nM; in the assay on MDA-MB-435 it was 173 nM and 102 nM; with NCI/ADR-RES ovarian, > 1000 nM and 196 nM. The GI50 in the assay with BT-549 breast was 173 nM and 179 nM; with NCI-H23 lung it was > 1000 nM and 162 nM. Besides, the TGI in the assay on EKVX NSCLC was > 1000 nM and 323 nM; in the assay on SF-539 CNS it was 569 nM and 312 nM; in the assay with COLO 205 colon, > 1000 nM and 363 nM; in the assay with HCT-116 colon, 434 nM and 333 nM; in the assay on MDA-MB-435 it was 317 nM and 244 nM; in the assay with NCI/ADR-RES ovarian, > 1000 nM and 404 nM. Besides, the TGI in the assay with BT-549 breast is 332 nM and 326 nM; in the assay on NCI-H23 lung it was > 1000 nM and 314 nM.
On to `Oc1c(Cl)cc(C(c2cc(Cl)c(O)c(Cl)c2)C(c2cc(Cl)c(O)c(Cl)c2)c2cc(Cl)c(O)c(Cl)c2)cc1Cl`, for which the GI50 in the assay on EKVX NSCLC is 3350 nM; in the assay with SF-539 CNS, 5330 nM; in the assay on COLO 205 colon, 10600 nM; in the assay on HCT-116 colon it was 2360 nM; in the assay with MDA-MB-435 it was 5640 nM; in the assay on NCI/ADR-RES ovarian, 10700 nM. Moreover, the GI50 in the assay on BT-549 breast is 3230 nM; in the assay with NCI-H23 lung, 3680 nM. For the same compound, the TGI is 17200 nM with EKVX NSCLC; 20400 nM in the assay with SF-539 CNS; 28900 nM with COLO 205 colon; 10800 nM with HCT-116 colon; 19200 nM in the assay with MDA-MB-435; 38000 nM in the assay with NCI/ADR-RES ovarian. Besides, the TGI with BT-549 breast came out at 36900 nM; in the assay on NCI-H23 lung, 16300 nM.
For the compound `O=[n+]1cnn([O-])c2ccccc21`, the TGI in the assay on EKVX NSCLC was 91700 nM; with SF-539 CNS it was 55700 nM; with COLO 205 colon it was 40700 nM; in the assay with HCT-116 colon, 36900 nM; in the assay on MDA-MB-435 it was more than 100000 nM; with NCI/ADR-RES ovarian, more than 100000 nM. Also, the figures for the TGI in the assay with BT-549 breast and with NCI-H23 lung were 54400 nM and more than 100000 nM, respectively.
Take `COc1cc2c3c(n(CCCN=[N+]=[N-])c(=O)c2cc1OC)-c1ccc(N)cc1C3=O`: the GI50 in the assay on EKVX NSCLC was 1090 nM; with SF-539 CNS it was 91.9 nM; in the assay with COLO 205 colon it was 400 nM; in the assay on HCT-116 colon it was 97 nM; with MDA-MB-435, 479 nM; with NCI/ADR-RES ovarian, 316 nM. Also, the values for the GI50 in the assay with BT-549 breast and with NCI-H23 lung were 244 nM and 170 nM, respectively. Further, the TGI worked out at 8550 nM in the assay with EKVX NSCLC; 325 nM in the assay with SF-539 CNS; 1230 nM in the assay with COLO 205 colon; 521 nM in the assay with HCT-116 colon; 1650 nM in the assay on MDA-MB-435; 1410 nM in the assay on NCI/ADR-RES ovarian. Besides, the TGI with BT-549 breast amounted to 6400 nM; with NCI-H23 lung it was 730 nM.
Turning to `COC(=O)C1=C2C3=C(C(=O)c4ccccc4C3=O)N(Cc3ccccc3)C2(OC(C)=O)C=CC1=O` (stereo not drawn), the GI50 in the assay on EKVX NSCLC is 23600 nM; in the assay with SF-539 CNS, 5900 nM; in the assay with COLO 205 colon, 26800 nM; in the assay with HCT-116 colon, 6250 nM; in the assay with MDA-MB-435, 9520 nM; in the assay with NCI/ADR-RES ovarian it was 8560 nM. Moreover, the GI50 is 6900 nM in the assay on BT-549 breast and 11800 nM in the assay on NCI-H23 lung. Also, the TGI with EKVX NSCLC was 79900 nM; in the assay with SF-539 CNS, 23100 nM; in the assay on COLO 205 colon, more than 100000 nM; in the assay with HCT-116 colon, 24800 nM; in the assay with MDA-MB-435 it was 25300 nM; in the assay on NCI/ADR-RES ovarian it was more than 100000 nM. The values for the TGI in the assay with BT-549 breast and with NCI-H23 lung were 34800 nM and 76600 nM, respectively.
Take `CCN(CC)CCC(CNc1c2ccc([N+](=O)[O-])cc2nc2cc(OC)c(OC)cc12)c1ccccc1` (stereo not drawn): the GI50 in the assay on EKVX NSCLC was 335 nM and 264 nM; in the assay on SF-539 CNS it was 380 nM and 423 nM; in the assay with COLO 205 colon it was 152 nM and 89.5 nM; in the assay with HCT-116 colon, 89.8 nM and 47.2 nM; in the assay on MDA-MB-435, 161 nM and 148 nM; with NCI/ADR-RES ovarian, 1530 nM and 1720 nM. The GI50 in the assay on BT-549 breast is 1490 nM and 740 nM; in the assay with NCI-H23 lung, 292 nM and 287 nM. In addition, the TGI was 1380 nM and 1130 nM in the assay on EKVX NSCLC; 1460 nM and 1640 nM with SF-539 CNS; 448 nM and 299 nM in the assay on COLO 205 colon; 1140 nM and 491 nM with HCT-116 colon; 311 nM and 319 nM in the assay on MDA-MB-435; 5100 nM and 5070 nM in the assay with NCI/ADR-RES ovarian. Further, the TGI is 3780 nM and 2000 nM with BT-549 breast; 1230 nM and 1290 nM in the assay with NCI-H23 lung.
On to `Clc1ccc(N/N=C/c2ccccn2)nc1`, for which the GI50 in the assay on EKVX NSCLC is 352 nM; in the assay on SF-539 CNS it was 329 nM; with COLO 205 colon it was 342 nM; in the assay on HCT-116 colon, 305 nM; with MDA-MB-435 it was 560 nM; in the assay with NCI/ADR-RES ovarian, 383 nM. In addition, the GI50 was 554 nM in the assay with BT-549 breast and 579 nM in the assay on NCI-H23 lung. The TGI is more than 100000 nM in the assay on EKVX NSCLC; 2460 nM in the assay with SF-539 CNS; 18600 nM with COLO 205 colon; more than 100000 nM in the assay with HCT-116 colon; more than 100000 nM in the assay with MDA-MB-435; more than 100000 nM in the assay with NCI/ADR-RES ovarian. For the same compound, the values for the TGI with BT-549 breast and with NCI-H23 lung were more than 55000 nM and more than 100000 nM, respectively.
As to `Nc1cccc(-c2nc3sccn3c2-c2ccnc(NCCCNS(=O)(=O)c3ccc(C(F)(F)F)cc3)n2)c1`, the GI50 is 6090 nM in the assay with EKVX NSCLC; 6660 nM in the assay with SF-539 CNS; 3320 nM with COLO 205 colon; 3550 nM in the assay on HCT-116 colon; 3210 nM in the assay with MDA-MB-435; 3360 nM in the assay on NCI/ADR-RES ovarian. Also, the GI50 was 2950 nM with BT-549 breast and 5070 nM in the assay on NCI-H23 lung. Moreover, the TGI in the assay with EKVX NSCLC was determined as 86100 nM; in the assay on SF-539 CNS it was 29600 nM; in the assay with COLO 205 colon, 13100 nM; with HCT-116 colon it was 30500 nM; in the assay on MDA-MB-435 it was 12300 nM; in the assay on NCI/ADR-RES ovarian, 56900 nM. Also, the TGI was found to be 13100 nM with BT-549 breast and 40900 nM with NCI-H23 lung.
With `O=C(O)c1ccc([N+](=O)[O-])c(P(=O)(O)O)c1`, the TGI in the assay on EKVX NSCLC, with SF-539 CNS, with COLO 205 colon, in the assay on HCT-116 colon, in the assay on MDA-MB-435 and in the assay on NCI/ADR-RES ovarian was more than 100000 nM in each case. The TGI in the assay on BT-549 breast and in the assay on NCI-H23 lung was more than 100000 nM throughout.
